Laboratory results: patent US5843941A, “Ras farnesyl transferase inhibitors” (Genentech, Inc., priority 1994, dated 1998)
Like-named read-outs stand apart in the source and are kept apart here.

Molecular target: CAAX farnesyltransferase (Rattus norvegicus, UniProt Q02293+Q04631)
Assay: In vitro inhibition of CAAX farnesyltransferase
Type: biochemical
Set-up: purified to homogeneity from rat brain homogenates; from tissue; host or cells: rat brain; alternatively recombinant enzyme from a baculovirus expression system
Conditions: Table D
Description: All compounds were tested for in vitro inhibition of CAAX protein farnesyltransferase. […] Alternatively, recombinant CAAX protein farnesyltransferase was also used in this assay. […] Seventy-two hrs after infection, the cells were harvested and disrupted and the enzyme isolated by chromatography on Q-Sepharose.
After incubation for 30 min at 37° C., the amount of [3H]famesyl group transferred to p21H-ras was measured by precipitation with SDS/trichloroacetic acid, filtration onto nitrocellulose, and scintillation counting.
Structures of the compounds tested are reproduced below. Compound numbers also refer to example numbers above.

[1] = diastereomer A, read-out: EC50 (μM) "A"
[2] = diastereomer B, read-out: EC50 (μM) "B"

Chain of CAAX farnesyltransferase (Q02293 whole entry, one chain of several): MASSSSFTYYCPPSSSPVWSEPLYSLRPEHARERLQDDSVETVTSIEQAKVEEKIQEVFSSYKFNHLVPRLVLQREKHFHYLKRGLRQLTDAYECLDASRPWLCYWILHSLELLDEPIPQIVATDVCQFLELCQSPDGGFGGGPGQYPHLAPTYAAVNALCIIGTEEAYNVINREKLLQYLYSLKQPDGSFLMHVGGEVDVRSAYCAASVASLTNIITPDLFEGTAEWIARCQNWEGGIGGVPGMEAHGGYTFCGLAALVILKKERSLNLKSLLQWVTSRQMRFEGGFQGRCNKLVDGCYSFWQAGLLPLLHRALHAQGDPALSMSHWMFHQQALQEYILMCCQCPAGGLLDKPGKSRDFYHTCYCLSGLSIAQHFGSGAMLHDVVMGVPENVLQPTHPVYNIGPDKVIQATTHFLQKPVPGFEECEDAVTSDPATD

SMILES	EC50 [1] [µM]	EC50 [2] [µM]
CCCC[C@H](NC(=O)CN1C(=O)C(N(C)C(=O)[C@@H](N)CS)N=C(c2ccccc2)c2ccccc21)C(=O)O (stereo partly drawn) [compound 62, N-[[3-[(2-amino-3-mercapto-1-oxopropyl)methylamino]-2,3-dihydro-2-oxo-5-phenyl-1H-1,4benzodiazepin-1-yl]acetyl]-L-norleucine]	0.72	0.0005
CSCC[C@@H](C(=O)O)N(C)C(=O)CN1C(=O)C(NC(=O)[C@@H](N)CS)N=C(c2ccccc2)c2ccccc21 (stereo partly shown) [compound 63]	> 10	2
CSCC[C@@H](C(=O)O)N(C)C(=O)CN1C(=O)C(N(C)C(=O)[C@@H](N)CS)N=C(c2ccccc2)c2ccccc21 (stereo partly drawn) [compound 64, N-[[3-[(2-amino-3-mercapto-1-oxopropyl)methylamino]-2,3-dihydro-2-oxo-5-phenyl-1H-1,4-benzodiazepin-1-yl]acetyl]-(N-methyl)-L-methionine]	0.26	0.002
CN(CC(=O)O)C(=O)CN1C(=O)C(N(C)C(=O)[C@@H](N)CS)N=C(c2ccccc2)c2ccccc21 (stereo partly shown) [compound 65, N-[[3-[(2-amino-3-mercapto-1-oxopropyl)methylamino]-2,3-dihydro-2-oxo-5-phenyl-1H-1,4-benzodiazepin-1-yl]acetyl]-(N-methyl)-glycine]	> 3	0.0038
CN(C(=O)[C@@H](N)CS)C1N=C(c2ccccc2)c2ccccc2N(CC(=O)N(CC(=O)O)Cc2ccccc2)C1=O (stereo partly shown) [compound 66]	2.4	0.0006
CSCC[C@H](NC(=O)CN1C(=O)C(N(C)C(=O)[C@@H](N)CS)N=C(c2ccccc2)c2cc(Cl)ccc21)C(=O)O (stereo partly drawn) [compound 67, N-[[3-[(2-amino-3-mercapto-1-oxopropyl)methylamino]-2,3-dihydro-2-oxo-5-phenyl-7-chloro-1H-1,4-benzodiazepin-1-yl]acetyl]-L-methionine]	0.31	0.0004
CN(C(=O)[C@@H](N)CS)C1N=C(c2ccccc2)c2cc(Cl)ccc2N(CC(=O)N[C@@H](Cc2ccccc2)C(=O)O)C1=O (stereo partly shown) [compound 68]	0.14	0.0016
CN(C(=O)[C@@H](N)CS)C1N=C(c2ccccc2)c2cc(Cl)ccc2N(CC(=O)N[C@@H](Cc2ccccc2)C(N)=O)C1=O (stereo partly drawn) [compound 69, N-[[3-[(2-amino-3-mercapto-1-oxopropyl)methylamino]-2,3-dihydro-2-oxo-5phenyl-7-chloro-1H-1,4-benzodiazepin-1-yl]acetyl]-L-phenylalanine amide]	1.5	0.0036
CN(C(=O)[C@@H](N)CS)C1N=C(c2ccccc2)c2cc(Cl)ccc2N(CC(=O)N[C@@H](Cc2ccc(F)cc2)C(=O)O)C1=O (stereo partly drawn) [compound 70, N-[[3-[(2-amino-3-mercapto-1-oxopropyl)methylamino]-2,3-dihydro-2-oxo-5-phenyl-7-chloro-1H-1,4-benzodiazepin-1-yl]acetyl]-L-4-fluoro-phenylalanine]	0.13	0.0008
CN(C(=O)[C@@H](N)CS)C1N=C(c2ccccc2)c2cc(Cl)ccc2N(CC(=O)N[C@H](C(=O)O)C2CCCCC2)C1=O (stereo partly drawn) [compound 71, N-[[3-[(2-amino-3-mercapto-1-oxopropyl)methylamino]-2,3-dihydro-2-oxo-5-phenyl-7-chloro-1H-1,4-benzodiazepin-1-yl]acetyl]-L-(α-cyclohexyl)-glycine]	0.1	0.0007
CN(C(=O)[C@@H](N)CS)C1N=C(c2ccccc2)c2cc(Cl)ccc2N(CC(=O)N[C@H](C(N)=O)C2CCCCC2)C1=O (stereo partly drawn) [compound 72, N-[[3-[(2-amino-3-mercapto-1-oxopropyl)methylamino]-2,3-dihydro-2-oxo-5-phenyl-7-chloro-1H-1,4-benzodiazepin-1-yl]acetyl]-L-(α-cyclohexyl)-glycine amide]	0.6	0.0017
